Numbering of substitutions follows the chain as printed.
Legend:
[1] = biological target: ALK6 (Homo sapiens, UniProt O00238); assay: TR-FRET enzymatic ALK kinase assay, ALK6
Description: (§1) Briefly, the ALKs enzymatic assay was initiated by dispense 2.5 μl enzyme in 1× kinase reaction buffer. The assay plate was then added with compounds followed by incubation at room temperature for 10 minutes. Then 2.5 μl/well substrate was added.

[2] = biological target: ALK3 (Homo sapiens, UniProt P36894); assay: TR-FRET enzymatic ALK kinase assay, ALK3
Description: as §1

[3] = biological target: T1, ALK2 (Homo sapiens, UniProt Q04771); assay: TR-FRET enzymatic ALK kinase assay, ALK2
T1 sequence (Q04771 21-509): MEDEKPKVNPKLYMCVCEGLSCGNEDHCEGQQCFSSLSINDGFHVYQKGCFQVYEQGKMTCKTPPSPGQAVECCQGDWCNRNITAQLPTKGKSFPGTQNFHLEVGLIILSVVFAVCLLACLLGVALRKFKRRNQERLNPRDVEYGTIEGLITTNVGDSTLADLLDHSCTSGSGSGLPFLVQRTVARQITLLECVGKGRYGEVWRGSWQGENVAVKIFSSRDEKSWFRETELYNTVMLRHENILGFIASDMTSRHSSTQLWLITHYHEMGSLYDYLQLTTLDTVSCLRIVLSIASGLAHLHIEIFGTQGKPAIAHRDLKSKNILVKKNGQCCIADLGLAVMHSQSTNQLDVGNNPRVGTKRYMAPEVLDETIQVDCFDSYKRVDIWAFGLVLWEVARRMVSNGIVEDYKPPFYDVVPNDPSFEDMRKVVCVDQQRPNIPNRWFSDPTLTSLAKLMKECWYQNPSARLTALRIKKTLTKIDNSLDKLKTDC
Description: as §1

[4] = Cell-based assay, TGFb1 (Cell IC50)
[5] = biological target: T2, ALK5 (Homo sapiens, UniProt P36897); assay: TR-FRET enzymatic ALK kinase assay, ALK5
T2 sequence (P36897 34-503): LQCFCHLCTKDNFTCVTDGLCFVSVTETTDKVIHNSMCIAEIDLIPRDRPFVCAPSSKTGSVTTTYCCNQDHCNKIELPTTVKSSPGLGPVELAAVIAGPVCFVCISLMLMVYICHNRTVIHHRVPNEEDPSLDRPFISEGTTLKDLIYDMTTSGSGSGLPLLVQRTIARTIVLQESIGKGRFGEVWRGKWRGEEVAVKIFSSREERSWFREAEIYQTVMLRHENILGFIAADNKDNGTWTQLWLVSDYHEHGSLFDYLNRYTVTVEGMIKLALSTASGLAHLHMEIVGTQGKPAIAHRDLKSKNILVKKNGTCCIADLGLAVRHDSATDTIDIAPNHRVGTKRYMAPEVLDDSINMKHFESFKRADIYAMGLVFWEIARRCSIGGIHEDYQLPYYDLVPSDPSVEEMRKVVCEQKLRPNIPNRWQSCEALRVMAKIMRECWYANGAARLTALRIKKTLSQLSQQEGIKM
Description: Six ALK kinase enzyme assays were developed for determination of compound activities on ALK1, ALK2, ALK3, ALK4, ALK5 and ALK6.
as §1

[6] = biological target: T3, ALK2 (Mus musculus, UniProt P37172); assay: HTRF pSMAD1 cell-based ALK2 assay (C2C12 cells, BMP6 as agonist); conditions: cell-based assay, BMP6; read-out: Cell IC50 BMP6
T3 construct: The C2C12 cell line was selected for the measurement of ALK2 activity using BMP6 as the agonist; host or cells: C2C12
T3 sequence (P37172 21-509): T1 sequence (Q04771 21-509) with M1V, P10Q, L121I, D162E, P310S
Outline: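 Cells pre-starved, plated in 0.1% FBS medium for 4 h, compound added for 30 min, then stimulated 30 min with BMP9 (BAOEC) or BMP6 (C2C12). Phospho-SMAD1 measured by HTRF after overnight room-temperature detection incubation.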

[7] = biological target: T4, ALK4 (Homo sapiens, UniProt P36896); assay: TR-FRET enzymatic ALK kinase assay, ALK4
T4 sequence (P36896 24-505): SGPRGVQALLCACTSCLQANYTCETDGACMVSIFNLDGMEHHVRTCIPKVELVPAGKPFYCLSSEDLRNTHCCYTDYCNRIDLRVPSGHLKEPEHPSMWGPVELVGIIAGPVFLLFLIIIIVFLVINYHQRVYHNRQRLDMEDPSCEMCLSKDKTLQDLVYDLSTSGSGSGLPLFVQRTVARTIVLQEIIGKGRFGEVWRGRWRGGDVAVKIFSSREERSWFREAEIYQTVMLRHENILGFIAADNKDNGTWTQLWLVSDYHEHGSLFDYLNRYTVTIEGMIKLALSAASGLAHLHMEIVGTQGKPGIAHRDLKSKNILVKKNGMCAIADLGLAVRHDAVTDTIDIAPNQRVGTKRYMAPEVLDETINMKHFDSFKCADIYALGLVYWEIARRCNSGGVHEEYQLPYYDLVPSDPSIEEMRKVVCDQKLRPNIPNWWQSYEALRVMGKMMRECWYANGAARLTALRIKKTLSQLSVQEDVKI
Description: as §1

[8] = biological target: ALK1 (Homo sapiens, UniProt P37023); assay: TR-FRET enzymatic ALK kinase assay, ALK1
Chain of ALK1 (P37023 22-503): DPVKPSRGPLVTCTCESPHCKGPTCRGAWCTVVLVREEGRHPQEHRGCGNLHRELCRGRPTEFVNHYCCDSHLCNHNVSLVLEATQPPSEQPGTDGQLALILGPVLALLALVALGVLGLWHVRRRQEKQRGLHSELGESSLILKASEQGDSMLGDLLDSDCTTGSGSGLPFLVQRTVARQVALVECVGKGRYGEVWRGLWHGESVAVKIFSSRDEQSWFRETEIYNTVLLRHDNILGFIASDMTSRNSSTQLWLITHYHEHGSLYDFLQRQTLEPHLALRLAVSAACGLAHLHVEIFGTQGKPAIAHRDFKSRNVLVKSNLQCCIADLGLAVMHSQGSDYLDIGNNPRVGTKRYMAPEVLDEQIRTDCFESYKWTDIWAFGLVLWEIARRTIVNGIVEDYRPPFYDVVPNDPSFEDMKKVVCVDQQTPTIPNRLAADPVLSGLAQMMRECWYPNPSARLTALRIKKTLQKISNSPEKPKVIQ
Description: as §1

Chain of ALK6 (O00238 14-502): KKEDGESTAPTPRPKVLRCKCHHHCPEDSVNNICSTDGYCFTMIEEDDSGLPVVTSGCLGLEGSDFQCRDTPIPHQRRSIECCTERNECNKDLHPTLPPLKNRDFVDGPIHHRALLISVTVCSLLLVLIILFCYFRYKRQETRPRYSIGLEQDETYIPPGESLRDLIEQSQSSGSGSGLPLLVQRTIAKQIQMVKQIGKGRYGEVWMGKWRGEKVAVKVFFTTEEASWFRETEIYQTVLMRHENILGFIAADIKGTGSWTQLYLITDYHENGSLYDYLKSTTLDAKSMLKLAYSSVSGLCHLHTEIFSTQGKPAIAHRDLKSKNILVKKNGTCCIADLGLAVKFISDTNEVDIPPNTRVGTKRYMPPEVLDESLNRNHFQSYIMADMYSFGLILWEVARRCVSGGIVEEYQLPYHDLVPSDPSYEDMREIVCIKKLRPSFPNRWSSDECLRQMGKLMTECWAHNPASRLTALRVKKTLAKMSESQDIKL
Chain of ALK3 (P36894 24-532): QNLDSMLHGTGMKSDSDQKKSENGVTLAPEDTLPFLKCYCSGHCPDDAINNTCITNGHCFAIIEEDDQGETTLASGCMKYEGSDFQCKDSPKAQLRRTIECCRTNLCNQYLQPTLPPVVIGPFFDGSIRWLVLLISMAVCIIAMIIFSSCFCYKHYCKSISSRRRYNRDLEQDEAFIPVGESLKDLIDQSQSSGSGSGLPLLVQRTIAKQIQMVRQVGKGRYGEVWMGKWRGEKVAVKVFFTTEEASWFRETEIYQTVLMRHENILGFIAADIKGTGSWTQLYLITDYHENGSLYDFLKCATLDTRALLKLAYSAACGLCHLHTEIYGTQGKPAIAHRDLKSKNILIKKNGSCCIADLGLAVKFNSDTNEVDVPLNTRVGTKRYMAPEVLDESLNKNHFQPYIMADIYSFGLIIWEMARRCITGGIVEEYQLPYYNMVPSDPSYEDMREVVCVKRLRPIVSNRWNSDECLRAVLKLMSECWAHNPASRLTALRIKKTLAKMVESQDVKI

SMILES	IC50 [1] [µM]	IC50 [2] [µM]	IC50 [3] [µM]	IC50 [4] [µM]	IC50 [5] [µM]	IC50 [6] [µM]	IC50 [7] [µM]	IC50 [8] [µM]
N=C(N)c1ccc(-c2cnn3cc(-c4ccc(N5CCNCC5)cc4)cnc23)c2ccccc12 [Compound 16, 4-(6-(4-(piperazin-1-yl)phenyl)pyrazolo[1,5-a]pyrimidin-3-yl)-1-naphthimidamide]	74.8	4.93	0.084	13.5		0.89	73.9	0.405
O=C(O)c1ccc(-c2cnn3cc(-c4ccc(N5CCNCC5)cc4)cnc23)c2ccccc12 [Compound 1, 4-(6-(4-(piperazin-1-yl)phenyl)pyrazolo[1,5-a]pyrimidin-3-yl)-1-naphthoic acid]	1.74	0.984	0.037	100		8.66		0.186
CNC(=O)c1cccc2c(-c3cnn4cc(-c5ccc(N6CCNCC6)cc5)cnc34)cccc12 [Compound 7, N-methyl-5-(6-(4-(piperazin-1-yl)phenyl)pyrazolo[1,5-a]pyrimidin-3-yl)-1-naphthamide]	0.334	0.598	0.226	2.93		0.283	30.9	1.59
O=C(O)c1cccc2c(-c3cnn4cc(-c5ccc(N6CCNCC6)cc5)cnc34)cccc12 [Compound 5, 5-(6-(4-(piperazin-1-yl)phenyl)pyrazolo[1,5-a]pyrimidin-3-yl)-1-naphthoic acid]	0.017	0.017	0.01	100		100		0.045

The next lines start with the values.

IC50 [1] [µM]	IC50 [2] [µM]	IC50 [3] [µM]	IC50 [4] [µM]	IC50 [5] [µM]	IC50 [6] [µM]	IC50 [7] [µM]	IC50 [8] [µM]	SMILES
0.225	0.042	0.006	0.2	5.43	0.011	0.92	0.004	C[C@@H]1CNC[C@H](C)N1c1ccc(-c2cnc3c(-c4ccc(C(N)=O)c5ccccc45)cnn3c2)cc1 [Compound 9, 4-(6-(4-((2S,6R)-2,6-dimethylpiperazin-1-yl)phenyl)pyrazolo[1,5-a]pyrimidin-3-yl)-1-naphthamide]
> 10	1.6	0.026	17	> 10	0.266	> 10	0.091	CN1CCC(c2ccc(-c3cnc4c(-c5cccc(C(C)(C)O)c5)cnn4c3)cc2)CC1 [Compound 92, 2-(3-(6-(4-(1-methylpiperidin-4-yl)phenyl)pyrazolo[1,5-a]pyrimidin-3-yl)phenyl)propan-2-ol]
> 10	6.3	0.12	13.5	> 10	0.467	> 10	0.57	NS(=O)(=O)c1cccc(-c2cnn3cc(-c4ccc(CCN5CCCCC5)cc4)cnc23)c1 [Compound 75, 3-(6-(4-(2-(piperidin-1-yl)ethyl)phenyl)pyrazolo[1,5-a]pyrimidin-3-yl)benzenesulfonamide]
> 10	1.7	0.039	5.57	> 10	0.11	7.3	0.12	C[C@@H]1CNC[C@H](C)N1c1ccc(-c2cnc3c(-c4ccc(N)c(S(N)(=O)=O)c4)cnn3c2)cc1 [Compound 85, 2-amino-5-(6-(4-((2R,6S)-2,6-dimethylpiperazin-1-yl)phenyl)pyrazolo[1,5-a]pyrimidin-3-yl)benzenesulfonamide]
16.9	17.6	0.916	44.1	15.6	4.2		3.06	N=C(N)c1ccc(-c2cnn3cc(-c4ccc(N5CCNCC5)cc4)cnc23)cc1 [Compound 14, 4-(6-(4-(piperazin-1-yl)phenyl)pyrazolo[1,5-a]pyrimidin-3-yl)benzimidamide]
